In patent US20150158891A1, “STABLE PHARMACEUTICAL COMPOSITION FOR OPTIMIZED DELIVERY OF AN HIV ATTACHMENT INHIBITOR” (Bristol-Myers Squibb Company, priority 2008, published 2015):

Test system: Porcine alkaline phosphatase
Experiment: Conversion of prodrug to parent compound by alkaline phosphatase in pH 7.0 Tris-HCl buffer solution
Type: in vitro ADME
Experimental: Phosphate ester prodrug was dissolved in pH 7.0 Tris-HCl buffer to a concentration of 0.72 mg/mL. Porcine alkaline phosphatase (1 mg/mL) was added to an aliquot of the solution. 2.5 hours after enzyme addition a sample was analyzed. The results in the Table below confirm that alkaline phosphatase is active in pH 7.0 Tris-HCl buffer and rapidly hydrolyzes the phosphate ester prodrug to the parent compound.

Prodrug peak area (2.5 hr sample of solution containing enzyme (1 mg/mL)): 0.0% | Prodrug peak area (initial sample of prodrug solution (no enzyme), 0.72 mg/mL, percent of total prodrug+parent peak area): 99.9%
Structure (SMILES): COc1cnc(-n2cnc(C)n2)c2c1c(C(=O)C(=O)N1CCN(C(=O)c3ccccc3)CC1)cn2COP(=O)(O)O [Prodrug, 1-benzoyl-4-[2-[4-methoxy-7-(3-methyl-1H-1,2,4-triazol-1-yl)-1-[(phosphonooxy)methyl]-1H-pyrrolo[2,3-c]pyridin-3-yl]-1,2-dioxoethyl]-piperazine]
